Data on one molecule can be found in ChEMBL document CHEMBL3217737, “Discovery of a highly selective FLT3 kinase inhibitor from phenotypic cell viability profiling” (Medchemcomm, 2013).

Active and inactive are the calls of the source. The rule behind the calls is not given here.

Assay [1] deals with Protein kinase C alpha type (Homo sapiens) (UniProt P17252). Briefly: Inhibition of PKCalpha (unknown origin) at 10 uM assessed as residual enzyme activity.
The target of assay [2] is Leukocyte tyrosine kinase receptor (Homo sapiens) (UniProt P29376). As to the kind of experiment: Inhibition of LTK (unknown origin) at 10 uM assessed as residual enzyme activity.
The target of assay [3] is Hepatocyte growth factor receptor (Homo sapiens) (UniProt P08581). As to the kind of experiment: Inhibition of c-Met (unknown origin) at 10 uM assessed as residual enzyme activity.
Chain of Hepatocyte growth factor receptor (Homo sapiens) (P08581 whole entry): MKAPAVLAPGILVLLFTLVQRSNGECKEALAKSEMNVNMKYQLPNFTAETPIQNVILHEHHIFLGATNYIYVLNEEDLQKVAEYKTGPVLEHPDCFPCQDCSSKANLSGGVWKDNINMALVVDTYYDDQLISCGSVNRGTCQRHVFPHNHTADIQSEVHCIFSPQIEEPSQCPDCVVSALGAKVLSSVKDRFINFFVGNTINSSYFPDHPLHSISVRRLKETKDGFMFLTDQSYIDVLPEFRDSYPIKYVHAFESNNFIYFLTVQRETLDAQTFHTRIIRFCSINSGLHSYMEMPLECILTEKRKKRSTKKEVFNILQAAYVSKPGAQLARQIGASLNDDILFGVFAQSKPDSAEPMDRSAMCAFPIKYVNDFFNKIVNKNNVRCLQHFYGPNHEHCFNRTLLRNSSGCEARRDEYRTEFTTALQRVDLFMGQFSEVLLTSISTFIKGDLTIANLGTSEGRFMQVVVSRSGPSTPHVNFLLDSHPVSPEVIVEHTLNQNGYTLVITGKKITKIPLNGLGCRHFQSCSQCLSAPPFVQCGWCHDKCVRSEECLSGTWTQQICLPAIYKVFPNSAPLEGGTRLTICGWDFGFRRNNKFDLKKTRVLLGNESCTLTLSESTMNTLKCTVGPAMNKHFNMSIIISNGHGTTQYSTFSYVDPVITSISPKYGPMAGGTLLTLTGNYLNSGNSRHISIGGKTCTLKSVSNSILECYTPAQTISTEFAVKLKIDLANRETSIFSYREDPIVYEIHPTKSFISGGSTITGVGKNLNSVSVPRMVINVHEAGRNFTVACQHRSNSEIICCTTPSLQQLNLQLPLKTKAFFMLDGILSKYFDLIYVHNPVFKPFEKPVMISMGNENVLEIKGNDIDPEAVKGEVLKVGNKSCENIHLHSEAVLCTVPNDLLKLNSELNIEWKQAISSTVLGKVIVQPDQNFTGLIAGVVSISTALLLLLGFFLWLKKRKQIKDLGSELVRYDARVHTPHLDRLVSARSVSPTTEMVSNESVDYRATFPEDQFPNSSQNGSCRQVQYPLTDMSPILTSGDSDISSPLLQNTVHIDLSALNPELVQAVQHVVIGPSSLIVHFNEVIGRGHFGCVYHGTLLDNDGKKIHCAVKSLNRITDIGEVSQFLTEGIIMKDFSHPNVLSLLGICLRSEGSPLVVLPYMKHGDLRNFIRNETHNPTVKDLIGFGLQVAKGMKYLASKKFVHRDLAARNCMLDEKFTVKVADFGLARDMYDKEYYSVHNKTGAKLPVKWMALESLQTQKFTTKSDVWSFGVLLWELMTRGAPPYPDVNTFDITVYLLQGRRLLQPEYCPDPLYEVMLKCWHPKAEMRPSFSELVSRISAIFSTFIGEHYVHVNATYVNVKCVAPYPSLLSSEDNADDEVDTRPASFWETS
Assay [4] has as its target Mitogen-activated protein kinase kinase kinase 5 (Homo sapiens) (UniProt Q99683). Briefly: Inhibition of ASK1 (unknown origin) at 10 uM assessed as residual enzyme activity.
In assay [5] the target is Vascular endothelial growth factor receptor 2 (Homo sapiens) (UniProt P35968). As to the kind of experiment: Inhibition of VEGFR2 (unknown origin) at 10 uM assessed as residual enzyme activity.
Assay [6] concerns the target Dual specificity mitogen-activated protein kinase kinase 1 (Homo sapiens) (UniProt Q02750). As to the kind of experiment: Inhibition of MEK1 (unknown origin) at 10 uM assessed as residual enzyme activity.
For assay [7], the target named is Mitogen-activated protein kinase 14 (Homo sapiens) (UniProt Q16539). As to the kind of experiment: Inhibition of P38alpha (unknown origin) at 10 uM assessed as residual enzyme activity.
Chain of Mitogen-activated protein kinase 14 (Homo sapiens) (Q16539 whole entry): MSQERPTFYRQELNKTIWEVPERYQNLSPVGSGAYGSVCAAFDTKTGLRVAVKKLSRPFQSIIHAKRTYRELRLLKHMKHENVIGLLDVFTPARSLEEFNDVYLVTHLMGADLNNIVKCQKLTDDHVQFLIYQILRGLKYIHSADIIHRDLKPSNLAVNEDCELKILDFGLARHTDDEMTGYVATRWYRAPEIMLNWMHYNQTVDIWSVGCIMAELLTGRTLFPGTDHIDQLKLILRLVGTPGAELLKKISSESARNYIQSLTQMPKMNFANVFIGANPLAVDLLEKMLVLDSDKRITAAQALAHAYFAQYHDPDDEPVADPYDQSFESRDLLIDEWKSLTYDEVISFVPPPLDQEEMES
Another assay deals with HL-60. As to the kind of experiment: Cytotoxicity against human HL60 cells assessed as cell growth inhibition after 24 hrs by WST1 assay. The format is functional, cell-based. For orientation: Tetrazolium dyes change colour on reduction, which living cells bring about.
Assay [8] deals with Fibroblast growth factor receptor 1 (Homo sapiens) (UniProt P11362). Briefly: Inhibition of FGFR1 (unknown origin) at 10 uM assessed as residual enzyme activity.
Assay [9] addresses Mitogen-activated protein kinase 8 (Homo sapiens) (UniProt P45983). As to the kind of experiment: Inhibition of JNK1 (unknown origin) at 10 uM assessed as residual enzyme activity.
The next assay has as its system MCF7. Briefly: Cytotoxicity against human MCF7 cells assessed as cell viability at 1 uM after 24 hrs by WST1 assay. Conditions: MCF7, 24 h, read-out: Activity. The format is functional.
Assay [10] addresses Receptor-type tyrosine-protein kinase FLT3 (Homo sapiens) (UniProt P36888). Briefly: Inhibition of FLT3 (unknown origin) at 10 uM assessed as residual enzyme activity.
For assay [11], the target named is Receptor-type tyrosine-protein kinase FLT3 (Homo sapiens, UniProt P36888). As to the kind of experiment: Inhibition of FLT3 (unknown origin) by kinase hot spot assay.
Chain of Receptor-type tyrosine-protein kinase FLT3 (P36888 whole entry): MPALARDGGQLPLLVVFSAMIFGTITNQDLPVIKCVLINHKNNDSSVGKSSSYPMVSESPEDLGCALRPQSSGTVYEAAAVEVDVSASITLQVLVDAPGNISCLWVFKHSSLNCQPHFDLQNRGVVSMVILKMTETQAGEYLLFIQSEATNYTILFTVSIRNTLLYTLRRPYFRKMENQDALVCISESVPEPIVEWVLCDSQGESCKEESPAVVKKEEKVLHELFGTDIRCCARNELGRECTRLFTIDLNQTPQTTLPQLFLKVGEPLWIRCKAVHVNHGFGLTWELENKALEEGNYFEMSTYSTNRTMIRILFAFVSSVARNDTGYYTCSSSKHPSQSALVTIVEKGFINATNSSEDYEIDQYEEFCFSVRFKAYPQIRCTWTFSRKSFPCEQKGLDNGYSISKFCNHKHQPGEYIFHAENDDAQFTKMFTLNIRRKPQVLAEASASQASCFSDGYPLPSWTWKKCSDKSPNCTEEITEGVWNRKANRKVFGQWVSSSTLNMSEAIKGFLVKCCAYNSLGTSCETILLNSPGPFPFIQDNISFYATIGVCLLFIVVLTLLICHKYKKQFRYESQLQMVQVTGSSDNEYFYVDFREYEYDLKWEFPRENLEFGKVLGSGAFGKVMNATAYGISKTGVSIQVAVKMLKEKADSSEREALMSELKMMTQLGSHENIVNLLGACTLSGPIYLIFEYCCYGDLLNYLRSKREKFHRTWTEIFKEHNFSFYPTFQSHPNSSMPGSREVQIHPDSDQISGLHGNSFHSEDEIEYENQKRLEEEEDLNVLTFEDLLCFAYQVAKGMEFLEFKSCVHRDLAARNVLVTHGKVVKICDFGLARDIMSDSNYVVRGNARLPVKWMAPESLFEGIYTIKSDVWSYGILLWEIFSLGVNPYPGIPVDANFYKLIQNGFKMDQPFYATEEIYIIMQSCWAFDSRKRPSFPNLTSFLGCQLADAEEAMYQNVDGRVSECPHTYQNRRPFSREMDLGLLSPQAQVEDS
Assay [12] can be described thus: Cytotoxicity against human U87MG cells assessed as cell viability at 1 uM after 24 hrs by WST1 assay. The format is functional, U-87MG ATCC. Conditions: U-87 MG, read-out: Activity.
For assay [13], the system named is MV4-11. As to the kind of experiment: Induction of apoptosis in human MV4-11 cells assessed as PARP cleavage at 0.1 to 10 uM after 12 hrs by Western blot method. The format is functional, cell-based. In general terms: A western blot detects proteins with antibodies after separation by electrophoresis.
Assay [14] has as its system MV4-11. Briefly: Induction of apoptosis in human MV4-11 cells assessed as increase in cleaved PARP level at 0.1 to 10 uM after 12 hrs by Western blot method. The format is functional, cell-based.
Assay [15] deals with Platelet-derived growth factor receptor alpha (Homo sapiens) (UniProt P16234). Briefly: Inhibition of PDGFRalpha (unknown origin) at 10 uM assessed as residual enzyme activity.
Chain of Platelet-derived growth factor receptor alpha (Homo sapiens) (P16234 whole entry): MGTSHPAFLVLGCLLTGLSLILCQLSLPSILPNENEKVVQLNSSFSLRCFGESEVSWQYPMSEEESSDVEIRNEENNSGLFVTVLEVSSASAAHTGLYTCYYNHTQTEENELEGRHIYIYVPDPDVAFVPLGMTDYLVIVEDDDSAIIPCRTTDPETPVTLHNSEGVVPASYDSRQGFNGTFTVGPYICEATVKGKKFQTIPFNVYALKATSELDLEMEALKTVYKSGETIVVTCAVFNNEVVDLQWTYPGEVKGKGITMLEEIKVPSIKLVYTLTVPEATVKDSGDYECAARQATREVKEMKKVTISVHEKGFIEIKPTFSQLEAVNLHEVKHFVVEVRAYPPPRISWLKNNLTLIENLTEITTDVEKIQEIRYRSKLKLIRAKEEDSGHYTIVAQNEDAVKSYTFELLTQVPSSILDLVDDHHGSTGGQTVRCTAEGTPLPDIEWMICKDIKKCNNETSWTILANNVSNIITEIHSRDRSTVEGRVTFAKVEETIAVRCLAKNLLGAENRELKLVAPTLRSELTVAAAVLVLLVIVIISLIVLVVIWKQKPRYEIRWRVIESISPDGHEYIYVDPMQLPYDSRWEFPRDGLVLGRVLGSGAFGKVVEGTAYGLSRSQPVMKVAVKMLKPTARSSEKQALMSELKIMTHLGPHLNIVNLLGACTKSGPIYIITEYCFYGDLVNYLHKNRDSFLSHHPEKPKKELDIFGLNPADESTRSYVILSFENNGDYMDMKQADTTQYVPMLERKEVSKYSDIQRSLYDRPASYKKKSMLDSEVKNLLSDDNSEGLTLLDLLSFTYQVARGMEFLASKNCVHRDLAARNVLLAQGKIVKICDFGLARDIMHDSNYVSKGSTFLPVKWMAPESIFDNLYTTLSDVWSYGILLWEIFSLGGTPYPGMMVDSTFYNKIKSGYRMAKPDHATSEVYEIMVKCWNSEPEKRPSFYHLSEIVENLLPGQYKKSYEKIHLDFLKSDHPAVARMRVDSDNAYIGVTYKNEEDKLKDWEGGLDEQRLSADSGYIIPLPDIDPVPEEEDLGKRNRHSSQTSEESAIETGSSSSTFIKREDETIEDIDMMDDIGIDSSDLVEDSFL
For assay [16], the target named is Receptor-type tyrosine-protein kinase FLT3 (Homo sapiens) (UniProt P36888). Briefly: Inhibition of FLT3 in human MV4-11 cells assessed as reduction in STAT5 phosphorylation after 12 hrs by Western blot method. The format is cell-based.
Chain of Receptor-type tyrosine-protein kinase FLT3 (Homo sapiens) (P36888 whole entry): as the sequence (P36888 whole entry) above
For assay [17], the target named is Cyclin-dependent kinase 5/CDK5 activator 1 (Homo sapiens) (UniProt Q00535+Q15078). Briefly: Inhibition of CDK5/p35 (unknown origin) at 10 uM assessed as residual enzyme activity. The format is protein-complex assay.
Chain of Cyclin-dependent kinase 5/CDK5 activator 1 (Homo sapiens) (Q00535 whole entry): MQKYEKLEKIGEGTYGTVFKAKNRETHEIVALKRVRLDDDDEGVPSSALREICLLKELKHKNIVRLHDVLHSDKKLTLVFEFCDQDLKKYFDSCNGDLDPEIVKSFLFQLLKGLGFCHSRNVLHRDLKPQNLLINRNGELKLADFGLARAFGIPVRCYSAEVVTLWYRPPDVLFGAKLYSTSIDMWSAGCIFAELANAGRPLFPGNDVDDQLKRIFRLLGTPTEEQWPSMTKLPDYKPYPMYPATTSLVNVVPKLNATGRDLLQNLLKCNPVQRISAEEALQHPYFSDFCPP
Chain of Cyclin-dependent kinase 5/CDK5 activator 1 (Homo sapiens) (Q15078 99-307 partner limits assumed): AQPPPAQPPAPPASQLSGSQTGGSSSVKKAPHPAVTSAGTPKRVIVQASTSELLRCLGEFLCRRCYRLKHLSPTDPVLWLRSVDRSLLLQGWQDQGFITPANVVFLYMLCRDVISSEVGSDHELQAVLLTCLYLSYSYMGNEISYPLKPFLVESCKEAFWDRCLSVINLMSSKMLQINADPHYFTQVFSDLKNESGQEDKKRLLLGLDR
Assay [18] concerns the target Receptor-type tyrosine-protein kinase FLT3 (Homo sapiens) (UniProt P36888). As to the kind of experiment: Inhibition of FLT3 phosphorylation in human MV4-11 cells after 4 hrs by Western blot method. The format is cell-based.

Chain of Mitogen-activated protein kinase 8 (Homo sapiens) (P45983 whole entry): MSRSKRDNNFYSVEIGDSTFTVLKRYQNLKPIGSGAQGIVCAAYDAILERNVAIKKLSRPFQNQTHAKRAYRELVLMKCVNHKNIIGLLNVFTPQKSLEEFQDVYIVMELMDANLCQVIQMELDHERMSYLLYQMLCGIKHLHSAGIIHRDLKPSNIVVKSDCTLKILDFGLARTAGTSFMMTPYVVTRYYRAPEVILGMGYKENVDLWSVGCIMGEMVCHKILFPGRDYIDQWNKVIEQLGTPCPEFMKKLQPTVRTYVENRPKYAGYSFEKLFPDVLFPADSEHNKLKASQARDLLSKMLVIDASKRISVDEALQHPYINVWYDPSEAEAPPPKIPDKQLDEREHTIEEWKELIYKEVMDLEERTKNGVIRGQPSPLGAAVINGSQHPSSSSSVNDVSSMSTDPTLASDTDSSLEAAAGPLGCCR

As to `COc1ccc(-c2n[nH]c3ncc(-c4ccc(Cl)cc4N)cc23)cc1`, the Activity in assay [1] turned out to be 84.5%; in [2] it was 92.9%; in assay [3], 118%; in assay [4], 97.8%; in assay [5] it was 98.6%; in assay [6], 102%. For the same molecule, the Activity in assay [7] is 110%; in [8] it was 90.1%; in assay [9], 101%; in assay [10], 9.5%; with MV4-11 [14] it was “Dose-dependent effect”; in [15], 93.8%. The Activity in [17] amounted to 87.2%. The “growth inhibition (GI)” value in the assay with HL-60 is “inactive”. For the same molecule, the viability at 1 µM in the assay on MCF7 was determined as 86%; in assay [12] it was 89%. In assay [11], this molecule displayed an IC50 of 1300 nM. Further, in the assay on MV4-11 [13], the result was Active. The inhibition entry in [16] is “Dose-dependent effect”. In assay [18], the inhibition entry is “Active”.

Broadly, the IC50 is the concentration that inhibits the measured activity by half. Lower therefore signals greater potency in that assay.
